Data from patent US4156731A, “Heterocyclic oxime compounds and carbamoyloxime derivatives” (priority 1976, dated 1979).

Key:
Type in all cases: in vivo
Parameters in all cases: key: A: Excellent control; B: Partial control; C: No control
[1] = tested on: bean aphid (Aphis fabae Scop.); assay: Bean Aphid Foliage Spray Test; conditions: 500 ppm foliage spray, 24 hour holding period
Experimental: (§1) Selected species of the new compounds were evaluated to determine their pesticidal activity against mites and certain insects, including anaphid, a caterpillar, a beetle and a fly.
(§2) Suspensions of the test compounds were prepared by dissolving one gram of compound in 50 milliliters of acetone in which had been dissolved 0.1 gram (10 percent of the weight of compound) of an alkylphenoxy polyethoxyethanol surfactant, as an emulsifying or dispersing agent. The resulting solution was mixed into 150 milliliters of water to give roughly 200 milliliters of a suspension containing the compound in finely divided form. The thus-prepared stock suspension contained 0.5 percent by weight of test compound. The test concentrations in parts per million by weight employed in the tests described hereinbelow were obtained by appropriate dilutions of the stock suspension with water. The test procedures were as follows:
Bean Aphid Foliage Spray Test
Adults and nymphal stages of the bean aphid (Aphis fabae Scop.) reared on potted dwarf nasturtium plants at 65°-70° F. and 50-70 per cent relative humidity, constituted the test insects. For testing purposes, the number of aphids per pot was standardized to 100-150 by trimming plants containing excess aphids.
The test compounds were formulated by diluting the stock suspension with water to give a suspension containing 500 parts of test compound per million parts of final formulation.
The potted plants (one pot per compound tested) infested with 100-150 aphids, were placed on a revolving turntable and sprayed with 100-110 milliliters of test compound formulation by use of a DeVilbiss spray gun set at 40 psig. air pressure. This application, which lasted 25 seconds, was sufficient to wet the plants to run-off. As a control, 100-110 milliliters of a water-acetone-emulsifier solution containing no test compound were also sprayed on infested plants. After spraying, the pots were placed on their sides on a sheet of white standard mimeograph paper which had been previously ruled to facilitate counting. Temperature and humidity in the test room during the 24 hour holding period were 65°-70° F. and 50-70 per cent, respectively. Aphids which fell into the paper and were unable to remain standing after being uprighted were considered dead. Aphids remaining on the plants wre observed closely for movement and those which were unable to move the length of the body upon stimulator by prodding were considered dead. Per cent mortality was recorded for various concentration levels.
(§3) In these tests the pesticidal activity of the compounds against aphid, mite, Southern Armyworm, Mexican Bean Beetle, and house fly was rated as follows: […]

[2] = tested on: two spotted mite (Tetranychus urticae Koch); assay: Mite Foliage Spray Test; conditions: 500 ppm foliage spray, six days
Experimental: as §1, §2
Adults and nymphal stages of the two spotted mite (Tetranychus urticae Koch), reared on Tendergreen bean plants at 80±5 per cent relative humidity, were the test organisms. Infested leaves from a stock culture were placed on the primary leaves of two bean plants six to eight inches in height, growing in a two-and-a-half inch clay pot. 150-200 mites, a sufficient number for testing, transferred from the excised leaves to the fresh plants in a period of twenty four hours. Following the twenty four hour transfer period, the excised leaves were removed from the infested plants. The test compounds were formulated by diluting the stock suspension with water to give a suspension with water to give a suspension containing 500 parts of test compound per million parts of final formulation. The potted plants (one pot per compound) were placed on a revolving turntable and sprayed with 100-110 milliliters of test compound formulation by use of a DeVilbiss spray gun set at 40 psig. air pressure. This application, which lasted for 25 seconds, was sufficient to wet the plants to run-off. As a control, 100-110 milliliters of a water solution containing acetone and emulsifier in the same concentrations as the test compound formulation, but containing no test compound, were also sprayed on infested plants. The sprayed plants were held at 80±5 per cent relative humidity for six days, after which a mortality count of motile forms were made. Microscopic examination for motile forms was made on the leaves of the test plants. Any individual which was capable of locomotion upon prodding, was considered living.
as §3

[3] = tested on: southern armyworm (Prodenia Eridania, (Cram.)); assay: Southern Armyworm Leaf Spray Test; conditions: larvae, 500 ppm leaf spray, three days
Experimental: as §1, §2
Southern Armyworm Leaf Spray Test
Larvae of the southern armyworm (Prodenia Eridania, (Cram.), reared on Tendergreen bean plants at a temperature of 80°±5° F. and a relative humidity of 50±5 per cent, constituted the test insects.
The test compounds were formulated by diluting the stock suspension with water to give a suspension containing 500 parts of test compound per million parts of final formulation. Potted Tendergreen bean plants of standard height and age were placed on a revolving turntable and sprayed with […] of test compound formulation by use of a DeVilbiss spray gun set at 10 psig. air pressure.
This application, which lasted 25 seconds, was sufficient to wet plants to run-off. As a control, 100-110 milliliters of a water-acetone-emulsifier solution containing no test compound were also sprayed on infested plants. When dry, the paired leaves were separated and each one was placed in a 9 centimeter Petric dish lined with moistened filter paper. Five randomly selected larvae were introduced into each dish and the dishes were closed. The closed dishes were labeled and held at 80°-85° F. for three days. Although the larvae could easily consume the whole leaf within twenty-four hours, no more food was added. Larvae which were unable to move the length of the body, even upon stimulation by prodding, were considered dead. Per cent mortality was recorded for various concentration levels.
as §3

[4] = tested on: Mexican bean beetle (Epilachna varivestis, Muls.); assay: Mexican Bean Beetle Leaf Spray Test; conditions: fourth instar larvae, 500 ppm leaf spray, three days
Experimental: as §1, §2
Mexican Bean Beetle Leaf Spray Test
Fourth instar larvae of the Mexican bean beetle (Epilachna varivestis, Muls.), reared on Tendergreen bean plants at a temperature of 80°±5° F. and 50±5 per cent relative humidity, were the test insects.
The test compounds were formulated by diluting the stock suspension with water to give a suspension containing 500 parts of test compound per million parts of final formulation. Potted Tendergreen bean plants of standard height and age were placed on a revolving turntable and sprayed with 100-110 milliliters of test compound formulation by use of DeVilbiss spray gun set at 10 psig air pressure. This application, which lasted 25 seconds, was sufficient to wet plants to run-off. As a control, 100-110 milliliters of a water-acetone-emulsifier solution containing no test compound were also sprayed on infested plants. When dry, the paired leaves were separated and each was placed in a 9 centimeter Petri dish lined with moistened filter paper. Five randomly selected larvae were introduced into each dish, and the dishes were closed. The closed dishes were labeled and held at a temperature of […]. for three days. Although the larvae could easily consume the leaf within 24 to 48 hours, no more food was added. Larvae which were unable to move the length of the body, even upon stimulation, were considered dead.
as §3

[5] = tested on: house flies (Musca domestica, L.); assay: Fly Bait Test; conditions: adults, 500 ppm in sugar bait, twenty four hours
Experimental: as §1, §2
Four to six day old adult house flies (Musca domestica, L.) reared according to the specifications of the Chemical Specialities Manufacturing Association (Blue Book, McNair-Dorland Co., NY., 1954; pages 234-244, 261) under controlled conditions of 80°±5° F. and 50±5 per cent relative humidity, were the test insects. The flies were immobilized by anesthetizing with carbon dioxide and twenty five immobilized individuals, males and females, were transferred to a cage consisting of a standard food stainer about five inches in diameter which was inverted over a wrapping-paper-covered surface. The test compounds were formulated by diluting the stock suspension with a 10 per cent (by weight) sugar solution to give a suspension containing 500 parts of test compound per million parts of final formulation, by weight. Ten milliliters of the test formulation were added to a souffle cup containing a one inch square of an absorbent cotton pad. This bait cup was introduced and centered on the blotting paper under the food strainer prior to admitting the anesthetized flies. The caged flies were allowed to feed on the bait for twenty four hours, at a temperature of 80°±5° F. and the relative humidity of 50±5 per cent.
as §3

Row | Compound | Bean Aphid pesticidal activity rating [1] | Mite pesticidal activity rating [2] | Southern Armyworm pesticidal activity rating [3] | Mexican Bean Beetle pesticidal activity rating [4] | House-Fly pesticidal activity rating [5]
1 | CN(SSc1ccc(C(C)(C)C)cc1)C(=O)ON=C1SC(=C(C#N)C#N)SC1(C)C [LXXII] | A | C | C | A | C
2 | CCCCN=C1SC(=NOC(=O)N(C)SC(Cl)(Cl)Cl)C(C)(C)S1 [LIII] | A | A | C | A | A
3 | CN(SC(Cl)(Cl)Cl)C(=O)ON=C1SC(=NS(C)(=O)=O)SC1(C)C [LVIII] | C | C | C | B | B
4 | CNC(=O)ON=C1CSC(=CC(C)=O)S1 [LXXVI] | C | C | C | B | A
5 | CN=C1SC(=NOC(=O)N(C)SC(Cl)(Cl)Cl)C(C)(C)S1 [XLV] | A | A | A | A | A
6 | CN=C1SC(=NOC(=O)N(C)SN(C)C(=O)ON=C2SC(=NC)SC2(C)C)C(C)(C)S1 [LXXVIII] | A | A | A | A | A
7 | CNC(=O)ON=C1SC(=NS(=O)(=O)c2ccc(C)cc2)SC1(C)C [LIX] | C | C | C | C | C
8 | CN(SN1CCOCC1)C(=O)ON=C1SC(=C(C#N)C#N)SC1(C)C [LXXIV] | A | C | B | C | C
9 | CNC(=O)ON=C1SC(=C(C#N)C#N)SC1(C)C [LXII] | C | C | C | C | C
10 | CN(SN(C)C(=O)ON=C1SC(=C(C#N)C#N)SC1(C)C)C(=O)ON=C1SC(=C(C#N)C#N)SC1(C)C [LXXVII] | C | C | C | A | C
11 | CNC(=O)ON=C1SC(=CC(C)=O)SC1(C)C [LXVIII] | A | C | A | A | A
12 | CN(C)N=C1SC(=NOC(=O)N(C)SSC(C)(C)C)C(C)(C)S1 [XLII] | A | A | A | A | A
13 | CC(C)N=C1SC(=NOC(=O)N(C)SSC(C)(C)C)C(C)(C)S1 [XLIX] | A | A | C | A | A
14 | CNC(=O)ON=C1SC(=NC#N)SC1(C)C [LXIX] | C | C | C | C | C
